The source of these data is publication PMC5386672, “Structure-guided design of purine-based probes for selective Nek2 inhibition” (Oncotarget, 2016).

The target of series [1] is CDK2 (Homo sapiens, UniProt P24941). Put plainly: CDK2 kinase inhibition assay. The conditions noted are these: for IC50: 12.5 μM ATP; for selectivity for CDK2 over Nek2: from IC50 values. Type of series: biochemical.
In series [2] the target is T1, Nek2 (Homo sapiens, UniProt P51955).
T1 construct: purchased Invitrogen
T1 sequence (P51955 1-445): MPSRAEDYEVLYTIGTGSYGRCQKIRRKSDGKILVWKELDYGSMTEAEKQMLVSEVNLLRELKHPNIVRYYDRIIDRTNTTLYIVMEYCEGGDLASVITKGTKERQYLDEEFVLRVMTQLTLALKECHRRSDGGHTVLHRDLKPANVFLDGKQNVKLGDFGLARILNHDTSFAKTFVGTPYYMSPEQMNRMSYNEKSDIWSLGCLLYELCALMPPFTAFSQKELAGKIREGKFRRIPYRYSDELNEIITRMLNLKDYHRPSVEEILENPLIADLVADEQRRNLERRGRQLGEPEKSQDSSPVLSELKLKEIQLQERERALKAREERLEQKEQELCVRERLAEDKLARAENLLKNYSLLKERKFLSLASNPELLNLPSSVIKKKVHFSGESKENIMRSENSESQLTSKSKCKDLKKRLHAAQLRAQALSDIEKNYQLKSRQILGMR
Nature of the series: Nek2 Caliper kinase inhibition assay. The series is classed as biochemical. To be noted: 30 μM ATP; for IC50: Caliper assay; for inhibition at 50 µM: @ 50 μM compound.

SMILES strings stand for the structures.

By IC50 is commonly meant the concentration at which inhibition is half-maximal. The low end stands for inhibition by little substance, the high end for a need for much substance. As a reminder, the melting point is the temperature of the solid-liquid transition. In turn, `O=C(Cc1cccc(Nc2nc(OCC3CCCCC3)c3nc[nH]c3n2)c1)NCCCO` [Compound 40] gave a melting point of 132 to 133 °C. In series [1], this compound had an IC50 of 0.8 µM. In series [2], this compound came in with an IC50 of 1.3 µM.
Compound `O=C(Cc1cccc(Nc2nc(OCC3CCCCC3)c3nc[nH]c3n2)c1)NC1CCCC1` [Compound 35] registered a melting point of 228 to 229 °C. The compound further returned an IC50 in series [1] of 1.1 µM. 4.1 µM corresponded to half-maximal inhibition in series [2] (IC50).
The compound `C(=C\N1CCCC1)/c1nc(Nc2ccccc2)nc2[nH]cnc12` [Compound 69, (E)-N-Phenyl-6-(2-(pyrrolidin-1-yl)vinyl)-9H-purin-2-amine] registered a melting point of 138 to 140 °C. Also, in series [1], 5.8 µM corresponded to half-maximal inhibition (IC50). For the same compound, it took 0.34 µM to reach half-maximal inhibition in series [2] (IC50).
A word on the inhibition: it is the drop in the measured response relative to a control, in per cent. Lower therefore signals a weak effect. The compound `NS(=O)(=O)Cc1cccc(Nc2nc(OCC3CCCCC3)c3nc[nH]c3n2)c1` [Compound 53, [3-(6-Cyclohexylmethoxy-9H-purin-2-ylamino)phenyl]methanesulfonamide] displayed a melting point of 134 to 135 °C. Also, in series [1], the IC50 was 0.24 µM. Also, the inhibition at 50 µM in series [2] was 81%.
Take `NC(=O)Nc1cccc(Nc2nc(OCC3CCCCC3)c3nc[nH]c3n2)c1` [Compound 31, 1-(3-(6-(Cyclohexylmethoxy)-9H-purin-2-ylamino)phenyl) urea]: the melting point fell in the range of 193 to 194 °C. In addition, in series [1], the IC50 was determined as 0.38 µM and the “selectivity for CDK2 over Nek2” value was found to be 10 fold. For the same compound, half-maximal inhibition in series [2] (IC50) was put at 3.6 µM.
For the compound `O=C(Nc1ccc(Nc2nc(OCC3CCCCC3)c3nc[nH]c3n2)cc1)c1ccncc1` [Compound 30, N-[4-(6-Cyclohexylmethoxy-9H-purin-2-ylamino)phenyl]isonicotinamide], the melting point was 248 to 250 °C (dec.). This compound returned an IC50 in series [1] of 2.2 µM. Besides, the inhibition at 50 µM in series [2] came to 51%.
`O=C(Cc1cccc(Nc2ncc3nc[nH]c3n2)c1)NCCCn1ccnc1` [Compound 67, N-(3-Imidazol-1-yl-propyl)-2-[3-(9H-purin-2-ylamino)phenyl]acetamide] yielded a melting point of 121 to 122 °C. Further, the IC50 in series [1] was above 100 µM. Besides, the IC50 in series [2] was determined as 5.9 µM.
Regarding `CN(C)[C@@H]1CCN(/C=C/c2nc(Nc3ccccc3)nc3[nH]cnc23)C1` [Compound 73, (R, E)-6-(2-(3-(Dimethylamino)pyrrolidin-1-yl)vinyl)-N-phenyl-9H-purin-2-amine], the melting point was 136 to 138 °C. Moreover, the IC50 in series [1] was determined as 6.9 µM. The compound further gave an IC50 in series [2] of 3 µM.
`O=[N+]([O-])c1ccc(Nc2nc(OCC3CCCCC3)c3nc[nH]c3n2)cc1` [Compound 19, 6-(Cyclohexylmethoxy)-N-(4-nitrophenyl)-9H-purin-2-amine] registered a melting point of 180 to 181 °C. The same compound returned an IC50 in series [1] of 1.9 µM. Further, the IC50 in series [2] is above 50 µM.
Turning to `CNC(=O)Cc1cccc(Nc2nc(OCC3CCCCC3)c3nc[nH]c3n2)c1` [Compound 15], the melting point fell in the range of 176 to 177 °C. In series [1], this compound had a half-maximal inhibitory concentration (IC50) of 0.32 µM. Moreover, the IC50 in series [2] turned out to be 1.3 µM.
With `CCOc1nc(Nc2cccc(CC(=O)NCCCn3ccnc3)c2)nc2[nH]cnc12` [Compound 62, 2-[3-(6-Ethoxy-9H-purin-2-ylamino)-phenyl]-N-(3-imidazol-1-ylpropyl)acetamide], the melting point was 176 to 177 °C. Further, in series [1], the half-inhibitory concentration (IC50) was 5.2 µM. In series [2], this compound had an IC50 of 2.8 µM.
The compound `Nc1ccc(Nc2nc(OCC3CCCCC3)c3[nH]cnc3n2)cc1` [Compound 21, 2-(4-Aminophenyl)amino-6-cyclohexylmethoxy-purine] returned a melting point of 228 to 230 °C. Also, in series [1], the IC50 stood at 0.22 µM. This compound also yielded an IC50 in series [2] of 6.3 µM.
Take `O=C(c1cccc(Nc2nc(OCC3CCCCC3)c3nc[nH]c3n2)c1)N1CCCCC1` [Compound 32, [3-(6-Cyclohexylmethoxy-9H-purin-2-ylamino)phenyl]piperidin-1-ylmethanone]: the melting point lay in the range of 133 to 135 °C. This compound also returned an IC50 in series [1] of 18 µM. At 50 µM the inhibition in series [2] was 57%.
Compound `CCC(C)Oc1nc(Nc2cccc(CC(=O)NCCCN(C)C)c2)nc2[nH]cnc12` (racemic) [Compound 60, (±)-2-[3-(6-sec-Butoxy-9H-purin-2-ylamino)phenyl]-N-(3-dimethylaminopropyl)acetamide] yielded a melting point of 97 to 98 °C. Moreover, in series [1], the IC50 is 0.41 µM and the “selectivity for CDK2 over Nek2” value is given as 10 fold. Also, the IC50 in series [2] turned out to be 4.9 µM.
`CN(C(=O)Cc1cccc(Nc2nc(OCC3CCCCC3)c3nc[nH]c3n2)c1)C1CCCCC1` [Compound 37] registered a melting point of 134 to 135 °C. The IC50 in series [1] is 1.6 µM. In series [2], this compound gave an inhibition at 50 µM of 26%.
The compound `O=[N+]([O-])c1cccc(Nc2nc(OCC3CCCCC3)c3nc[nH]c3n2)c1` [Compound 20, 6-(Cyclohexylmethoxy)-N-(3-nitrophenyl)-9H-purin-2-amine] had a melting point of 217 to 218 °C. Also, the IC50 in series [1] turned out to be 0.89 µM. For the same compound, in series [2], the IC50 was above 50 µM.
The matching figures for `CN(C)CCCCNC(=O)Cc1cccc(Nc2nc(OCC3CCCCC3)c3nc[nH]c3n2)c1` [Compound 45, 2-[3-(6-Cyclohexylmethoxy-9H-purin-2-ylamino)phenyl]-N-(4-dimethylaminobutyl)acetamide]: 125 to 127 °C, 0.86 µM and 0.7 µM.
Consider `O=C(Cc1cccc(Nc2nc(OCC3CCCCC3)c3nc[nH]c3n2)c1)NCCCn1ccnc1` [Compound 41, 2-[3-(6-Cyclohexylmethoxy-9H-purin-2-ylamino)phenyl]-N-(3-imidazol-1-yl-propyl)acetamide], for which the melting point was in the range of 192 to 193 °C. This compound also registered an IC50 in series [1] of 1.6 µM. This compound registered a 50% inhibitory concentration (IC50) in series [2] of 6.13 µM.
